Columns and labels:
Assay in all cases: relative viability (nuclei count vs DMSO), 5 days (fraction); higher = more cells survive
201T = system: 201T
How it was run: (§1)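 Each reported value is a median over duplicate plates. It expresses relative viability: treated-well nuclei count divided by vehicle-well nuclei count. Lung cancer cell lines in 1536-well plates were dosed by pin tool a day after seeding, alone with one drug or with a fixed anchor-drug dose plus five library-drug doses (not always all listed) in √10 steps, and nuclei were counted after 5 days.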

A-427 = system: A-427
How it was run: as §1

ABC-1 = system: ABC-1
How it was run: as §1

BEN = system: BEN
How it was run: as §1

CAL-12T = system: CAL-12T
How it was run: as §1

H3255 = system: H3255
How it was run: as §1

LC-2-ad = system: LC-2-ad
How it was run: as §1

LCLC-97TM1 = system: LCLC-97TM1
How it was run: as §1

NCI-H1650 = system: NCI-H1650
How it was run: as §1

NCI-H1651 = system: NCI-H1651
How it was run: as §1

NCI-H1915 = system: NCI-H1915
How it was run: as §1

NCI-H1944 = system: NCI-H1944
How it was run: as §1

NCI-H2023 = system: NCI-H2023
How it was run: as §1

NCI-H2087 = system: NCI-H2087
How it was run: as §1

NCI-H441 = system: NCI-H441
How it was run: as §1

NCI-H460 = system: NCI-H460
How it was run: as §1

NCI-H520 = system: NCI-H520
How it was run: as §1

NCI-H596 = system: NCI-H596
How it was run: as §1

NCI-H650 = system: NCI-H650
How it was run: as §1

NCI-H661 = system: NCI-H661
How it was run: as §1

NCI-H727 = system: NCI-H727
How it was run: as §1

PC-3 [JPC-3] = system: PC-3 [JPC-3]
How it was run: as §1

`Cc1sc2c(c1C)C(c1ccc(Cl)cc1)=N[C@@H](CC(=O)OC(C)(C)C)c1nnc(C)n1-2` [JQ1] + COc1cccc2cc(-c3nc([C@H]4CC[C@H](C(=O)O)CC4)n4ncnc(N)c34)[nH]c12 [OSI-027] (partner 0.5 µM) showed a relative viability (201T; first compound 0.04 µM) of 0.761, a relative viability (201T; first compound 0.1265 µM) of 0.596 and a relative viability (201T; first compound 0.4 µM) of 0.688. The relative viability (201T; first compound 1.265 µM) was 0.238, the relative viability (201T; first compound 4 µM) was 0.201 and the relative viability (A-427; first compound 0.04 µM) was 0.468. It also gave a relative viability (A-427; first compound 0.1265 µM) of 0.45, a relative viability (A-427; first compound 0.4 µM) of 0.458 and a relative viability (A-427; first compound 1.265 µM) of 0.3. For the same compound, the relative viability (A-427; first compound 4 µM) was 0.293, the relative viability (ABC-1; first compound 0.04 µM) was 0.452 and the relative viability (ABC-1; first compound 0.1265 µM) was 0.352. It also gave a relative viability (ABC-1; first compound 0.4 µM) of 0.322, a relative viability (ABC-1; first compound 1.265 µM) of 0.187 and a relative viability (ABC-1; first compound 4 µM) of 0.212. The relative viability (BEN; first compound 0.04 µM) was 0.282, the relative viability (BEN; first compound 0.1265 µM) was 0.286 and the relative viability (BEN; first compound 0.4 µM) was 0.335. For the same compound, the relative viability (BEN; first compound 1.265 µM) was 0.252, the relative viability (BEN; first compound 4 µM) was 0.2 and the relative viability (CAL-12T; first compound 0.04 µM) was 0.618. It also gave a relative viability (CAL-12T; first compound 0.1265 µM) of 0.586, a relative viability (CAL-12T; first compound 0.4 µM) of 0.32 and a relative viability (CAL-12T; first compound 1.265 µM) of 0.192. It also gave a relative viability (CAL-12T; first compound 4 µM) of 0.173, a relative viability (H3255; first compound 0.04 µM) of 0.532 and a relative viability (H3255; first compound 0.1265 µM) of 0.672. It also gave a relative viability (H3255; first compound 0.4 µM) of 0.629, a relative viability (H3255; first compound 1.265 µM) of 0.438 and a relative viability (H3255; first compound 4 µM) of 0.444. The relative viability (LC-2-ad; first compound 0.04 µM) was 0.77, the relative viability (LC-2-ad; first compound 0.1265 µM) was 0.543 and the relative viability (LC-2-ad; first compound 0.4 µM) was 0.62. For the same compound, the relative viability (LC-2-ad; first compound 1.265 µM) was 0.366, the relative viability (LC-2-ad; first compound 4 µM) was 0.302 and the relative viability (LCLC-97TM1; first compound 0.04 µM) was 0.476. The relative viability (LCLC-97TM1; first compound 0.1265 µM) was 0.674, the relative viability (LCLC-97TM1; first compound 0.4 µM) was 0.594 and the relative viability (LCLC-97TM1; first compound 1.265 µM) was 0.4. It also gave a relative viability (LCLC-97TM1; first compound 4 µM) of 0.199, a relative viability (NCI-H1650; first compound 0.04 µM) of 0.51 and a relative viability (NCI-H1650; first compound 0.1265 µM) of 0.447. For the same compound, the relative viability (NCI-H1650; first compound 0.4 µM) was 0.328, the relative viability (NCI-H1650; first compound 1.265 µM) was 0.153 and the relative viability (NCI-H1650; first compound 4 µM) was 0.206. It also gave a relative viability (NCI-H1651; first compound 0.04 µM) of 0.624, a relative viability (NCI-H1651; first compound 0.1265 µM) of 0.638 and a relative viability (NCI-H1651; first compound 0.4 µM) of 0.591. It also gave a relative viability (NCI-H1651; first compound 1.265 µM) of 0.391, a relative viability (NCI-H1651; first compound 4 µM) of 0.407 and a relative viability (NCI-H1915; first compound 0.04 µM) of 0.609. It also gave a relative viability (NCI-H1915; first compound 0.1265 µM) of 0.602, a relative viability (NCI-H1915; first compound 0.4 µM) of 0.59 and a relative viability (NCI-H1915; first compound 1.265 µM) of 0.263. It also gave a relative viability (NCI-H1915; first compound 4 µM) of 0.217, a relative viability (NCI-H1944; first compound 0.04 µM) of 0.39 and a relative viability (NCI-H1944; first compound 0.1265 µM) of 0.364. It also gave a relative viability (NCI-H1944; first compound 0.4 µM) of 0.375, a relative viability (NCI-H1944; first compound 1.265 µM) of 0.227 and a relative viability (NCI-H1944; first compound 4 µM) of 0.25. The relative viability (NCI-H2023; first compound 0.04 µM) was 0.362, the relative viability (NCI-H2023; first compound 0.1265 µM) was 0.377 and the relative viability (NCI-H2023; first compound 0.4 µM) was 0.262. For the same compound, the relative viability (NCI-H2023; first compound 1.265 µM) was 0.142, the relative viability (NCI-H2023; first compound 4 µM) was 0.148 and the relative viability (NCI-H2087; first compound 0.04 µM) was 0.586. For the same compound, the relative viability (NCI-H2087; first compound 0.1265 µM) was 0.643, the relative viability (NCI-H2087; first compound 0.4 µM) was 0.699 and the relative viability (NCI-H2087; first compound 1.265 µM) was 0.302. It also gave a relative viability (NCI-H2087; first compound 4 µM) of 0.301, a relative viability (NCI-H441; first compound 0.04 µM) of 0.718 and a relative viability (NCI-H441; first compound 0.1265 µM) of 0.583. It also gave a relative viability (NCI-H441; first compound 0.4 µM) of 0.705, a relative viability (NCI-H441; first compound 1.265 µM) of 0.392 and a relative viability (NCI-H441; first compound 4 µM) of 0.334. The relative viability (NCI-H460; first compound 0.04 µM) was 0.594, the relative viability (NCI-H460; first compound 0.1265 µM) was 0.366 and the relative viability (NCI-H460; first compound 0.4 µM) was 0.259. It also gave a relative viability (NCI-H460; first compound 1.265 µM) of 0.0873, a relative viability (NCI-H460; first compound 4 µM) of 0.0909 and a relative viability (NCI-H520; first compound 0.04 µM) of 0.211. It also gave a relative viability (NCI-H520; first compound 0.1265 µM) of 0.325, a relative viability (NCI-H520; first compound 0.4 µM) of 0.201 and a relative viability (NCI-H520; first compound 1.265 µM) of 0.217. It also gave a relative viability (NCI-H520; first compound 4 µM) of 0.208, a relative viability (NCI-H596; first compound 0.04 µM) of 0.809 and a relative viability (NCI-H596; first compound 0.1265 µM) of 0.892. It also gave a relative viability (NCI-H596; first compound 0.4 µM) of 0.539, a relative viability (NCI-H596; first compound 1.265 µM) of 0.334 and a relative viability (NCI-H596; first compound 4 µM) of 0.283. The relative viability (NCI-H650; first compound 0.04 µM) was 0.584, the relative viability (NCI-H650; first compound 0.1265 µM) was 0.41 and the relative viability (NCI-H650; first compound 0.4 µM) was 0.415. The relative viability (NCI-H650; first compound 1.265 µM) was 0.25, the relative viability (NCI-H650; first compound 4 µM) was 0.192 and the relative viability (NCI-H661; first compound 0.04 µM) was 0.714. The relative viability (NCI-H661; first compound 0.1265 µM) was 0.517, the relative viability (NCI-H661; first compound 0.4 µM) was 0.603 and the relative viability (NCI-H661; first compound 1.265 µM) was 0.423. It also gave a relative viability (NCI-H661; first compound 4 µM) of 0.453, a relative viability (NCI-H727; first compound 0.04 µM) of 0.576 and a relative viability (NCI-H727; first compound 0.1265 µM) of 0.582. It also gave a relative viability (NCI-H727; first compound 0.4 µM) of 0.414, a relative viability (NCI-H727; first compound 1.265 µM) of 0.375 and a relative viability (NCI-H727; first compound 4 µM) of 0.406. It also gave a relative viability (PC-3 [JPC-3]; first compound 0.04 µM) of 0.771, a relative viability (PC-3 [JPC-3]; first compound 0.1265 µM) of 0.823 and a relative viability (PC-3 [JPC-3]; first compound 0.4 µM) of 0.739. The relative viability (PC-3 [JPC-3]; first compound 1.265 µM) was 0.653 and the relative viability (PC-3 [JPC-3]; first compound 4 µM) was 0.445.

From the supplement of paper PMC10307832
